Laboratory results from US11231416B2, “Virus-like particle (VLP) based small molecule-protein interaction trap” (VIB VZW, priority 2015, dated 2022).

Legend:
RPS6KA1 = biological target: T1, RPS6KA1 (Homo sapiens, UniProt Q15418); assay: Viral trapping in VLPs, MS analysis; assay type: binding; details: all proteins (incl. low confidence identifications)
T1 construct: endogenous in cells; host or cells: HEK293T

TMX1 = biological target: T2, TMX1 (Homo sapiens, UniProt Q9H3N1); assay: Viral trapping in VLPs, MS analysis; assay type: binding; details: all proteins (incl. low confidence identifications)
T2 construct: endogenous in cells; host or cells: HEK293T
T2 sequence (Q9H3N1 27-280): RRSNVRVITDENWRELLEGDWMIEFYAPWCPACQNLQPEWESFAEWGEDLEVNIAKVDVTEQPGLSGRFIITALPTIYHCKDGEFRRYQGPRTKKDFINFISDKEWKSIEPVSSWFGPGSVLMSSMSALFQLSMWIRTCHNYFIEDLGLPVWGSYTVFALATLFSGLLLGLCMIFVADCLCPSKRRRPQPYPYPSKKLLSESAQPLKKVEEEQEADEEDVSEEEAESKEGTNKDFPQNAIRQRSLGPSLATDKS

HTRA3 = details: all proteins (incl. low confidence identifications)
TMEM30A = biological target: T3, TMEM30A (Homo sapiens, UniProt Q9NV96); assay: Viral trapping in VLPs, MS analysis; assay type: binding; details: all proteins (incl. low confidence identifications)
T3 construct: endogenous in cells; host or cells: HEK293T

CTNNA2 = biological target: T4, CTNNA2 (Homo sapiens, UniProt P26232); assay: Viral trapping in VLPs, MS analysis; assay type: binding; details: all proteins (incl. low confidence identifications)
T4 construct: endogenous in cells; host or cells: HEK293T

TMEM9 = biological target: T5, TMEM9 (Homo sapiens, UniProt Q9P0T7); assay: Viral trapping in VLPs, MS analysis; assay type: binding; details: all proteins (incl. low confidence identifications)
T5 construct: endogenous in cells; host or cells: HEK293T

INSR = biological target: T6, INSR (Homo sapiens, UniProt P06213); assay: Viral trapping in VLPs, MS analysis; assay type: binding
T6 construct: endogenous in cells; host or cells: HEK293T
T6 sequence (P06213 28-1382): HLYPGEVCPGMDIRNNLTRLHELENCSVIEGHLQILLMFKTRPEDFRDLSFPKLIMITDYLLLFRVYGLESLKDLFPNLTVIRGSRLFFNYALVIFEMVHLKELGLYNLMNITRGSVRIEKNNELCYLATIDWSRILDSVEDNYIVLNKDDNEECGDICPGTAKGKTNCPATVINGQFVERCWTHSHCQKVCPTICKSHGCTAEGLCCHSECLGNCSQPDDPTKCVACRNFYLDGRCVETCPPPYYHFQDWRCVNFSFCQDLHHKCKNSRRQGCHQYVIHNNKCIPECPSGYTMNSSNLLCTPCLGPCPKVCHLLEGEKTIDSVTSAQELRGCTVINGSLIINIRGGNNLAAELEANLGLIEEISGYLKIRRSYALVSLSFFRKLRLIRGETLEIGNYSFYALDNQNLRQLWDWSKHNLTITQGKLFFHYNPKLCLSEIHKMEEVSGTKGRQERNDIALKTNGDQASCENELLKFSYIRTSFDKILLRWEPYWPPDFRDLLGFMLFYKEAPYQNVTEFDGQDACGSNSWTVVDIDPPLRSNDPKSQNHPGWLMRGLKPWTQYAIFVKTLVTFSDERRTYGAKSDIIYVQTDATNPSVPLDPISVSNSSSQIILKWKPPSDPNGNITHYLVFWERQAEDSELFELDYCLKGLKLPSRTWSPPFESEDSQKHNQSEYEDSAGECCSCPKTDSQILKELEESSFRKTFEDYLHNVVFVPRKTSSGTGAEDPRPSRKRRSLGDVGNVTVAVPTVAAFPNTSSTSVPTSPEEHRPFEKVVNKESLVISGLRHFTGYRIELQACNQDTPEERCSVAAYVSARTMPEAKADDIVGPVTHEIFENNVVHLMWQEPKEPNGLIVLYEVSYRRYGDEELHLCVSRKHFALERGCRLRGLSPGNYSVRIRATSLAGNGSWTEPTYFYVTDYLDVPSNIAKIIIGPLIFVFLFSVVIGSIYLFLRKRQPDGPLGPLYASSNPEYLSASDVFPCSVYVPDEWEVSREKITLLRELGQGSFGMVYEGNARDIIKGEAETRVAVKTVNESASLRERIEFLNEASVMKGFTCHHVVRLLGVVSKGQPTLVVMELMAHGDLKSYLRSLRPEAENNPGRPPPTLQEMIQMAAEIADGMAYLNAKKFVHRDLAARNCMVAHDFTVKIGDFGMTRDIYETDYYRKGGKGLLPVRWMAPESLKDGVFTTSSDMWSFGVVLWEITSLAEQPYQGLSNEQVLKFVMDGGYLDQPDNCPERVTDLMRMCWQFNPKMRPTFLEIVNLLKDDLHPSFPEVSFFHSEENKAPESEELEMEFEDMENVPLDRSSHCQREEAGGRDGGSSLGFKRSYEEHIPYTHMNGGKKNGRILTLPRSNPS

LMAN1 = biological target: T7, LMAN1 (Homo sapiens, UniProt P49257); assay: Viral trapping in VLPs, MS analysis; assay type: binding; details: all proteins (incl. low confidence identifications)
T7 construct: endogenous in cells; host or cells: HEK293T

GAK = biological target: T8, GAK (Homo sapiens, UniProt O14976); assay: Viral trapping in VLPs, MS analysis; assay type: binding; details: all proteins (incl. low confidence identifications)
T8 construct: endogenous in cells; host or cells: HEK293T

GEMIN5 = biological target: T9, GEMIN5 (Homo sapiens, UniProt Q8TEQ6); assay: Viral trapping in VLPs, MS analysis; assay type: binding
T9 construct: endogenous in cells; host or cells: HEK293T
T9 sequence (Q8TEQ6 whole entry): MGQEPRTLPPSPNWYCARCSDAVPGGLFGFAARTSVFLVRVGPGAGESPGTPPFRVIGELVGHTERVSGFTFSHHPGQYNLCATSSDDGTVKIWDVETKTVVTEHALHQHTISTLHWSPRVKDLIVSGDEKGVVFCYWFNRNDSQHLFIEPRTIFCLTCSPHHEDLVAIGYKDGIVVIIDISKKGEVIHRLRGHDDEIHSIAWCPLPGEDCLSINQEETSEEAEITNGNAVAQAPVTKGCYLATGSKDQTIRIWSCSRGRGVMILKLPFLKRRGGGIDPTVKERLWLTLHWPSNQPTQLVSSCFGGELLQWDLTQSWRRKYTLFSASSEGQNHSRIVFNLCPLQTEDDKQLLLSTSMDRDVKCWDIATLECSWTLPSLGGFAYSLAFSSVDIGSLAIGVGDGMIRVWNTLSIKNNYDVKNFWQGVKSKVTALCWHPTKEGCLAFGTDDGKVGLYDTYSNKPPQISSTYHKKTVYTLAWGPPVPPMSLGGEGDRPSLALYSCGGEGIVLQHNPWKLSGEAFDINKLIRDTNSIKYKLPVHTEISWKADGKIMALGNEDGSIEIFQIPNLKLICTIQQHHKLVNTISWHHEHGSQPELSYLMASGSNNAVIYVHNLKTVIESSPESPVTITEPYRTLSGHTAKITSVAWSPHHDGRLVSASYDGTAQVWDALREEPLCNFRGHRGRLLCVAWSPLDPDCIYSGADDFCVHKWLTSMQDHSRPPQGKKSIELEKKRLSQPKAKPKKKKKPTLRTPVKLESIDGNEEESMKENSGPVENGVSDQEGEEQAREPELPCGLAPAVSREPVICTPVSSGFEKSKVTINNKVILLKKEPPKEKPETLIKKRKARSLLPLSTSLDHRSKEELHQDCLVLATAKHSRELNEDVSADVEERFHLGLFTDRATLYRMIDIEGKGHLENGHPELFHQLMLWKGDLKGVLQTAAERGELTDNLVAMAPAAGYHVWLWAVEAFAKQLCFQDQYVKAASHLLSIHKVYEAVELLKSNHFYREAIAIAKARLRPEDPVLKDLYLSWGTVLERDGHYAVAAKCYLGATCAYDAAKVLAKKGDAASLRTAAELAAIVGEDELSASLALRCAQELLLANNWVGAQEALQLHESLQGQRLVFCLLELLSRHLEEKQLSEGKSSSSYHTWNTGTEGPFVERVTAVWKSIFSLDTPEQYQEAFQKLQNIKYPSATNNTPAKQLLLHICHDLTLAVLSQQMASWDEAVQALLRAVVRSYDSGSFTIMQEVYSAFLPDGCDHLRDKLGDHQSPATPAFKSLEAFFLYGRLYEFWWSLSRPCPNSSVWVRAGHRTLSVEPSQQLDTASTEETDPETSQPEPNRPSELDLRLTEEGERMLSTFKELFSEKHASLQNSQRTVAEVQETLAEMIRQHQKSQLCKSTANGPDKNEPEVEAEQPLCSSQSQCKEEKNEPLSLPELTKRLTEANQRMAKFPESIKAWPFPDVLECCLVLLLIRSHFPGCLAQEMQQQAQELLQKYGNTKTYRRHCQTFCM

FKBP3 = biological target: T10, FKBP3 (Homo sapiens, UniProt Q00688); assay: Viral trapping in VLPs, MS analysis; assay type: binding; details: all proteins (incl. low confidence identifications)
T10 construct: endogenous in cells; host or cells: HEK293T

NT5C = biological target: T11, NT5C (Homo sapiens, UniProt Q8TCD5); assay: Viral trapping in VLPs, MS analysis; assay type: binding; details: all proteins (incl. low confidence identifications)
T11 construct: endogenous in cells; host or cells: HEK293T
T11 sequence (Q8TCD5 whole entry): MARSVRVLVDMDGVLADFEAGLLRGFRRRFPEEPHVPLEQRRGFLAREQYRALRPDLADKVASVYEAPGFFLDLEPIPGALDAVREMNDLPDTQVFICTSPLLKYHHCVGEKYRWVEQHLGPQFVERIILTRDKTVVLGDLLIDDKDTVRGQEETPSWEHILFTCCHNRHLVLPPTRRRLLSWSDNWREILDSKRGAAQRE

IGF1R = biological target: T12, IGF1R (Homo sapiens, UniProt P08069); assay: Viral trapping in VLPs, MS analysis; assay type: binding
T12 construct: endogenous in cells; host or cells: HEK293T
T12 sequence (P08069 31-1367): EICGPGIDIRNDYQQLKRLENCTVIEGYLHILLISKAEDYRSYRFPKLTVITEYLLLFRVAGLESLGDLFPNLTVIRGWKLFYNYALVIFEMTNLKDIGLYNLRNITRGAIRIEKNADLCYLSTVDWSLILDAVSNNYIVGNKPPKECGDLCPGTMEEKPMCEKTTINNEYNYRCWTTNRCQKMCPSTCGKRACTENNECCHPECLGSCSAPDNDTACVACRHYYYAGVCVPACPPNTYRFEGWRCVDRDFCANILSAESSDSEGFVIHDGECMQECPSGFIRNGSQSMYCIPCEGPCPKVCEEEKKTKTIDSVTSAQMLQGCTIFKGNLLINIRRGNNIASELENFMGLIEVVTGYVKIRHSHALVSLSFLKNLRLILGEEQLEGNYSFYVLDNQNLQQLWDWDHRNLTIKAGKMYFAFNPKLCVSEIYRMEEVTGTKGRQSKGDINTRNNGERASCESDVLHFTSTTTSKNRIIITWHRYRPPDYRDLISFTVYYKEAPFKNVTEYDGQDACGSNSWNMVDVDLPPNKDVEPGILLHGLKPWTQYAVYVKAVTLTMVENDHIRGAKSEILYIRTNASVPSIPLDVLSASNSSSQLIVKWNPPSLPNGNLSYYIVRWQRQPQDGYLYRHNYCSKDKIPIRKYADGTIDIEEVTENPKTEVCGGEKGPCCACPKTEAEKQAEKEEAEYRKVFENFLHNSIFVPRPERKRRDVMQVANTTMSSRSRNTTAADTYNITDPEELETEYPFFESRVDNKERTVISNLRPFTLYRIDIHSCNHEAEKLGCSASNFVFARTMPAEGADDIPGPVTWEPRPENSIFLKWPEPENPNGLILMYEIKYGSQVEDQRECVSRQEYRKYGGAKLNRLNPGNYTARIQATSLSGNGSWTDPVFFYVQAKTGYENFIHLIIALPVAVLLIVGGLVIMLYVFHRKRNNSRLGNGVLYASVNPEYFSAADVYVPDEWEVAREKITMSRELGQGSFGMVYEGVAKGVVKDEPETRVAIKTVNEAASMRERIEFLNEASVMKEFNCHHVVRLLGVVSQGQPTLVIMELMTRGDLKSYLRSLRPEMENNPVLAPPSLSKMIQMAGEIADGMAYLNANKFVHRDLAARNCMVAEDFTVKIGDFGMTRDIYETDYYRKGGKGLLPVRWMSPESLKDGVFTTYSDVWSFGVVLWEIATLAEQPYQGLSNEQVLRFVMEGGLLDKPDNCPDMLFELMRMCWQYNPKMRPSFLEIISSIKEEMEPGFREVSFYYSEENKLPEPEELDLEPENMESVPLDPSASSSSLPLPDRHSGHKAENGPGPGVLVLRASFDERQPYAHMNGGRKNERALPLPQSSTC

DYNC2H1 = biological target: T13, DYNC2H1 (Homo sapiens, UniProt Q8NCM8); assay: Viral trapping in VLPs, MS analysis; assay type: binding; details: all proteins (incl. low confidence identifications)
T13 construct: endogenous in cells; host or cells: HEK293T

PPM1L = biological target: T14, PPM1L (Homo sapiens, UniProt Q5SGD2); assay: Viral trapping in VLPs, MS analysis; assay type: binding; details: all proteins (incl. low confidence identifications)
T14 construct: endogenous in cells; host or cells: HEK293T

APMAP = biological target: T15, APMAP (Homo sapiens, UniProt Q9HDC9); assay: Viral trapping in VLPs, MS analysis; assay type: binding; details: all proteins (incl. low confidence identifications)
T15 construct: endogenous in cells; host or cells: HEK293T

NEK2 = biological target: T16, NEK2 (Homo sapiens, UniProt P51955); assay: Viral trapping in VLPs, MS analysis; assay type: binding; details: all proteins (incl. low confidence identifications)
T16 construct: endogenous in cells; host or cells: HEK293T

MYO1D = biological target: T17, MYO1D (Homo sapiens, UniProt O94832); assay: Viral trapping in VLPs, MS analysis; assay type: binding; details: all proteins (incl. low confidence identifications)
T17 construct: endogenous in cells; host or cells: HEK293T

BZW1 = biological target: T18, BZW1 (Homo sapiens, UniProt Q7L1Q6); assay: Viral trapping in VLPs, MS analysis; assay type: binding; details: all proteins (incl. low confidence identifications)
T18 construct: endogenous in cells; host or cells: HEK293T

CAMKV = biological target: T19, CAMKV (Homo sapiens, UniProt Q8NCB2); assay: Viral trapping in VLPs, MS analysis; assay type: binding; details: all proteins (incl. low confidence identifications)
T19 construct: endogenous in cells; host or cells: HEK293T

YIPF5 = biological target: T20, YIPF5 (Homo sapiens, UniProt Q969M3); assay: Viral trapping in VLPs, MS analysis; assay type: binding; details: all proteins (incl. low confidence identifications)
T20 construct: endogenous in cells; host or cells: HEK293T

USP7 = biological target: T21, USP7 (Homo sapiens, UniProt Q93009); assay: Viral trapping in VLPs, MS analysis; assay type: binding; details: all proteins (incl. low confidence identifications)
T21 construct: endogenous in cells; host or cells: HEK293T

RCL = biological target: T22, RCL (Homo sapiens, UniProt O43598); assay: Viral trapping in VLPs, MS analysis; assay type: binding
T22 construct: endogenous in cells; host or cells: HEK293T
T22 sequence (O43598 whole entry): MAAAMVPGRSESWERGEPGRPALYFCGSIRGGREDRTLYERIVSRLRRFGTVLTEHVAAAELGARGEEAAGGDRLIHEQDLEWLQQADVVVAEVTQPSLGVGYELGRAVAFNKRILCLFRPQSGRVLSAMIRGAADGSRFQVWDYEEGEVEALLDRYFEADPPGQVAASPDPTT

MST1R = biological target: T23, MST1R (Homo sapiens, UniProt Q04912); assay: Viral trapping in VLPs, MS analysis; assay type: binding; details: all proteins (incl. low confidence identifications)
T23 construct: endogenous in cells; host or cells: HEK293T

MBTPS1 = biological target: T24, MBTPS1 (Homo sapiens, UniProt Q14703); assay: Viral trapping in VLPs, MS analysis; assay type: binding; details: all proteins (incl. low confidence identifications)
T24 construct: endogenous in cells; host or cells: HEK293T

MFI2 = biological target: T25, MFI2 (Homo sapiens, UniProt P08582); assay: Viral trapping in VLPs, MS analysis; assay type: binding; details: all proteins (incl. low confidence identifications)
T25 construct: endogenous in cells; host or cells: HEK293T

NQO2 = biological target: T26, NQO2 (Homo sapiens, UniProt P16083); assay: Viral trapping in VLPs, MS analysis; assay type: binding
T26 construct: endogenous in cells; host or cells: HEK293T
T26 sequence (P16083 whole entry): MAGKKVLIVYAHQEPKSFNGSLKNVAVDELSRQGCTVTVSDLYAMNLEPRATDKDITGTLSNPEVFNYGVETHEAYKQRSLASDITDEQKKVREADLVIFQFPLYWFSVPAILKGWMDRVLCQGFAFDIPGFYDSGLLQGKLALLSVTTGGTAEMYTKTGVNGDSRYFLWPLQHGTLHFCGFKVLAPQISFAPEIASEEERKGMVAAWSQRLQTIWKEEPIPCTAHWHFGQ

ZNF827 = biological target: T27, ZNF827 (Homo sapiens, UniProt Q17R98); assay: Viral trapping in VLPs, MS analysis; assay type: binding; details: all proteins (incl. low confidence identifications)
T27 construct: endogenous in cells; host or cells: HEK293T

[1] = all proteins (incl. low confidence identifications)
[2] = proteins identified with >1 peptide (high confidence)

With `CN(Cc1cnc2nc(N)nc(N)c2n1)c1ccc(C(=O)NC(CCC(=O)NCCOCCOCCOCCOCCOCCn2cc(CN3CCN(c4ccc(Nc5nc(NC6CCCCC6)c6nc[nH]c6n5)cc4)CC3)nn2)C(=O)O)cc1` (stereo not drawn) [MTX-PEG6-reversine] the “Recurrence (x/2)” value (RPS6KA1) was 1 x/2, the “Recurrence (x/2)” value (TMX1) was 1 x/2 and the “Recurrence (x/2)” value (HTRA3) was 1 x/2. For the same compound, the “Recurrence (x/2)” value (TMEM30A) was 1 x/2, the “Recurrence (x/2)” value (CTNNA2) was 1 x/2 and the “Recurrence (x/2)” value (TMEM9) was 1 x/2. The “Recurrence (x/2)” value (INSR; [1]) was 2 x/2, the “Recurrence (x/2)” value (INSR; [2]) was 2 x/2 and the “Recurrence (x/2)” value (LMAN1) was 1 x/2. For the same compound, the “Recurrence (x/2)” value (GAK) was 1 x/2, the “Recurrence (x/2)” value (GEMIN5; [1]) was 1 x/2 and the “Recurrence (x/2)” value (GEMIN5; [2]) was 1 x/2. For the same compound, the “Recurrence (x/2)” value (FKBP3) was 1 x/2, the “Recurrence (x/2)” value (NT5C) was 1 x/2 and the “Recurrence (x/2)” value (IGF1R; [1]) was 2 x/2. For the same compound, the “Recurrence (x/2)” value (IGF1R; [2]) was 2 x/2, the “Recurrence (x/2)” value (DYNC2H1) was 1 x/2 and the “Recurrence (x/2)” value (PPM1L) was 1 x/2. The “Recurrence (x/2)” value (APMAP) was 1 x/2, the “Recurrence (x/2)” value (NEK2) was 1 x/2 and the “Recurrence (x/2)” value (MYO1D) was 1 x/2. For the same compound, the “Recurrence (x/2)” value (BZW1) was 1 x/2, the “Recurrence (x/2)” value (CAMKV) was 1 x/2 and the “Recurrence (x/2)” value (YIPF5) was 1 x/2. The “Recurrence (x/2)” value (USP7) was 1 x/2, the “Recurrence (x/2)” value (RCL; [1]) was 1 x/2 and the “Recurrence (x/2)” value (RCL; [2]) was 1 x/2. For the same compound, the “Recurrence (x/2)” value (MST1R) was 1 x/2, the “Recurrence (x/2)” value (MBTPS1) was 1 x/2 and the “Recurrence (x/2)” value (MFI2) was 1 x/2. For the same compound, the “Recurrence (x/2)” value (NQO2; [1]) was 2 x/2, the “Recurrence (x/2)” value (NQO2; [2]) was 1 x/2 and the “Recurrence (x/2)” value (ZNF827) was 1 x/2.
